Measured values from patent publication US20260098039A1, “SOLID FORMS OF COMPOUND I OR SALTS THEREOF” (Jacobio Pharmaceuticals Co., Ltd., priority 2022, published 2026).
Values after ≈ are worked out from the molar mass of the structure shown. “Also recorded” adds a separate entry of the source.

What was measured:
[1] = Solid state stability of crystalline form 1; type: physicochemical; details: long-term, accelerated, high temperature and high humidity conditions, exposed, dark, 10 days
Experimental: The stability of crystalline Form 1 of Compound I was tested according to the following table 6.
The solid stability of crystalline form 1 of Compound I was exposure for 10 days in high humidity (25° C.±2° C., 90% RH±5% RH), high temperature (50° C.±5° C., <30% RH), long-term (25° C.±5° C., 60% RH±5%) and accelerated (40° C.±2° C., 75% RH±5%) conditions.

[2] = Equilibrium solubility of crystalline form 1; type: physicochemical
Experimental: The equilibrium solubility of crystalline form 1 of Compound I was tested according to the following table 7.

PARP7 enzyme = target: T1, PARP7 enzyme (Homo sapiens, UniProt Q7Z3E1); assay: PARP7 enzymatic HTRF assay; type: binding; details: 6 nM PARP7 enzyme solution, RBN011147 probe, 25° C. 3 hrs
T1 sequence (Q7Z3E1 1-657): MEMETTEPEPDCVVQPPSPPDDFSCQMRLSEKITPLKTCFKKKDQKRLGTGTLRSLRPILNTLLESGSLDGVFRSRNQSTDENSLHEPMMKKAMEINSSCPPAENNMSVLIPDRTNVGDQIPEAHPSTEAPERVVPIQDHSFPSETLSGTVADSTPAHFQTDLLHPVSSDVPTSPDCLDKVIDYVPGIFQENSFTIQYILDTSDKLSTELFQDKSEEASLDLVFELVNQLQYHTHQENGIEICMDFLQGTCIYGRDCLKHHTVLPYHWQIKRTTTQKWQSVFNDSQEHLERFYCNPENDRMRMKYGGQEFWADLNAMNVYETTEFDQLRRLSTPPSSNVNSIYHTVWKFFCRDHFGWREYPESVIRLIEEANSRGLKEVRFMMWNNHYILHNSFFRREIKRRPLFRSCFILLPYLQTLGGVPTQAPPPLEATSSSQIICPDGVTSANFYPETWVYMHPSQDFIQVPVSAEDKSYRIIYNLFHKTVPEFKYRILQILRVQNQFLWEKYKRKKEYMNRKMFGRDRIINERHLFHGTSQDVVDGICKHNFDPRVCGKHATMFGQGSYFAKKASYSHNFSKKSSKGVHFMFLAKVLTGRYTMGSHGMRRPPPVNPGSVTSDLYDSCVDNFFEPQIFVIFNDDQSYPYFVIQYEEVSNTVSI
Experimental: The PARP7 enzyme inhibitory activity of each compound was tested using HTRF (homogeneous time resolved fluorescence) assay, and the half inhibitory concentration IC50 thereof was obtained.
(1) Each compound to be tested was prepared using gradient dilution method with DMSO and water to obtain a solution with the concentration of 50 nM, 10 nM, 2 nM, 0.4 nM, and 0.08 nM. The concentration of DMSO in the solution of each compound to be tested was 2%. […]
(5) The fluorescence signal was read on SPARK plate reader (Tecan), the wavelength of the excitation spectrum of the SPARK plate reader was 320 nm, and the wavelength of the emission spectrum of the SPARK plate reader was 620 nm and 665 nm. The ratio of […] was calculated for the solution in each well. The ratio was calculated according to the following formula: Ratio=absorbance at 665 nm/absorbance at 620 nm×10^4.
(6) The activation of the compounds to be tested was calculated according to the following formula: Activation (%)=100× (ratiocompound−rationnegative)/(ratiopositive−rationegative). […]

| Compound | Polymorph (via XRPD) in solid state stability [1] | solubility thermodynamic ([2]; 37 °C, thermodynamic from solid, FeSSIF, via HPLC) | Polymorph (via XRPD) after equilibrium solubility test ([2]; after 24 h in water (25° C.), SGF (37° C.), FaSSIF (37° C.), FeSSIF (37° C.)) | time to reach basic saturation ([2]; water (25° C.), SGF (37° C.), FaSSIF (37° C.), FeSSIF (37° C.)) | IC50 (PARP7 enzyme) |
| --- | --- | --- | --- | --- | --- |
| Cc1c2n(c3ncc(C(F)(F)F)cc13)CCN(C(=O)CCOC[C@H](C)Oc1cn[nH]c(=O)c1C(F)(F)F)C2 [crystalline form 1 of Compound I, (S)-5-((1-(3-(5-methyl-3-(trifluoromethyl)-8,9-dihydropyrido[3′,2′:4,5]pyrrolo[1,2-a]pyrazin-7(6H)-yl)-3-oxopropoxy)propan-2-yl)oxy)-4-(trifluoromethyl)pyridazin-3(2H)-one] | remain unchanged; also recorded: The polymorph remained unchanged under above 4 conditions for 10 | ~100 µg/mL (≈ 183 µM) | remains unchanged | 4 h |  |
| Cc1c2n(c3ncc(C(F)(F)F)cc13)CCN(C(=O)CCOC[C@H](C)Oc1cn[nH]c(=O)c1C(F)(F)F)C2 [Compound I, (S)-5-((1-(3-(5-methyl-3-(trifluoromethyl)-8,9-dihydropyrido[3′,2′:4,5]pyrrolo[1,2-a]pyrazin-7(6H)-yl)-3-oxopropoxy)propan-2-yl)oxy)-4-(trifluoromethyl)pyridazin-3(2H)-one] |  |  |  |  | 0.00158 µM |
